Assay results reported in PubChem BioAssay AID449762 (Southern Research Specialized Biocontainment Screening …, 2010).
Records with an inconclusive call do not appear.

What follows are compounds tested on M. tuberculosis H37Rv growth inhibition, 7H9 media (assay: M. tuberculosis growth inhibition, HTS (AID 449762;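 note: bacterial growth assessed after seven days of incubation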)). Settings: not given.
Compound `Cc1cc2nc(C3CCN(CC4COc5ccccc5O4)CC3)[nH]c2cc1C` (centres undefined) has an IC50 of 15.5 µM. In the case of `O=C1C(c2ccccc2)=[N+]([O-])c2ccccc21`, the IC50 is reported as 95.8 µM. `COc1ccc(CCNc2cc(-c3ccccc3)nc3ncnn23)cc1` gave an IC50 of 4.49 µM. In the case of `CCN(CC)CCCNc1nc2cc(OC)c(OC)cc2c2nc(-c3ccccc3)nn12`, the IC50 is reported as 4.71 µM. In the case of `O=C(Nc1cccc(-c2ccc(N3CCCCC3)nn2)c1)c1ccc(Br)o1`, the IC50 is reported as 16.5 µM. In the case of `Oc1ccccc1NCC(O)Cn1ccc2ccccc21` (centres undefined), the IC50 is reported as 5.37 µM. `COc1cc2c(cc1OC)C(c1cc(Br)ccc1F)N(C(=O)CCl)CC2` (centres undefined) was tested, and the IC50 was 2.77 µM. `CCC1=C(OC(=O)N(CC)CC)N2C(=O)OC(=NCCc3c[nH]c4ccccc34)[C@]2(Cc2ccccc2)[C@H]2C1=CC[C@H]1C(=O)NC(=O)[C@H]12` was tested, and the IC50 was 30.7 µM. Work on `CCc1ccc2nc(N3C(=O)C(O)=C(C(=O)c4ccco4)C3c3cccs3)sc2c1` (centres undefined) yielded an IC50 of 83.2 µM. `C=CC[N@@+]12CC[C@]34c5ccccc5N5/C=C6\C7N(/C=C(\C53)[C@@H](C[C@@H]41)/C(=C/CO)C2)c1ccccc1[C@@]71CC[N@@+]2(CC=C)C/C(=C\CO)[C@@H]6C[C@@H]12` (some centres undefined) showed an IC50 of 56.7 µM. `Cc1ccc(S(=O)(=O)N(C)c2ccc(OCC(=O)OCc3ccc(C#N)cc3)cc2)cc1` was tested, and the IC50 was 8.71 µM. `CCCCCC1CC(CC(=O)NC(=S)Nc2ccc([N+](=O)[O-])cc2)C(=O)O1` (centres undefined) showed an IC50 of 92.9 µM. Compound `COc1ccc(-c2oc3cccnc3c2/C=C/c2ccc(OC)c(OC)c2)cc1` has an IC50 of 51.3 µM. Compound `c1ccc(-c2nccc(-c3ccc(-n4cnc5ccccc54)cc3)n2)nc1` has an IC50 of 11 µM. With `CC1CCC(C(C)C)C(OC(=O)Cn2c(-c3ccc(F)cc3)[n+](C)c3ccccc32)C1` (centres undefined) the IC50 was 9.08 µM. `CCc1c(C)sc(NC(=S)N2CCN(CC)CC2)c1C(=O)OC` was tested, and the IC50 was 12.7 µM. Compound `CCN(CC)Cc1nc2c(c(=O)[nH]1)C(CC)(CC)Cc1ccccc1-2` has an IC50 of 4.46 µM. In the case of `C(=N\Nc1nc(-c2ccccc2)cs1)/c1ccncc1`, the IC50 is reported as 47.3 µM. `Cc1c(Cl)c([N+](=O)[O-])nn1Cc1ccc(C(=O)N/N=C\c2cccc(Br)c2)o1` showed an IC50 of 66.7 µM. In the case of `O=C(Nc1cc(C(F)(F)F)ccc1Cl)C(Sc1cccc[n+]1[O-])c1ccccc1` (centres undefined), the IC50 is reported as 39.2 µM. `c1ccc2sc(Sc3ncnc4sccc34)nc2c1` was tested, and the IC50 was 3.36 µM. For `O=[N+]([O-])c1cc(-c2ccc(/C=N\n3cnnc3)o2)cc([N+](=O)[O-])c1`, the IC50 was 0.65 µM. In the case of `Cc1ccc2nc(/C(C#N)=C/c3cn[nH]c3-c3ccc(F)cc3)[nH]c2c1`, the IC50 is reported as 20.9 µM. `CC1CCCCC1NC(=O)c1ccc2c(c1)[nH]c(=O)n2C1CCCC1` (centres undefined) gave an IC50 of 5.15 µM. Compound `Cc1nn(-c2ccccc2)c(C)c1/C=N/NC(=O)c1cc(-c2cccc3ccccc23)n[nH]1` has an IC50 of 29 µM. For `C=CCS/C(N)=N\N=C\c1c(O)ccc2ccccc12`, the IC50 was 12.2 µM. In the case of `COc1ccccc1NC(=O)CN1CCN(CC(=O)Nc2ccc3c(c2)OCO3)CC1`, the IC50 is reported as 14.8 µM. `COc1cc(OC)nc(Oc2ccccc2C(=O)Oc2ccc(Cl)cc2)n1` gave an IC50 of 68.5 µM. Work on `CCCCCCCCCCCCCCCC[N+](C)(C)CC` yielded an IC50 of 30.3 µM. For `N#CC(C#N)=c1ccc2c(c1)N1C3=C(CCCC3)CC3CCCCC31N=2` (centres undefined), the IC50 was 11.5 µM. With `CN1/C(=C\C(=O)COC(=O)c2ccc([N+](=O)[O-])o2)C(C)(C)c2ccccc21` the IC50 was 1.04 µM. Work on `Cn1cc(C(=O)c2ccc(Cl)cc2)cc1-c1nc2ccccc2n1C` yielded an IC50 of 13.4 µM. For `CN1OC(COC(=O)c2ccc(Cl)cc2Cl)CC1c1ccccc1` (centres undefined), the IC50 was 2.43 µM. `CN(C)c1ccc(N=Nc2ccccc2C(=O)OCC(=O)NCC2CCCCC2)cc1` gave an IC50 of 11 µM. Compound `Cc1nn(-c2ccccc2)c(Cl)c1C(=O)Nc1nnc(C2CCCCC2)s1` has an IC50 of 17.3 µM. With `Nc1ccc(-c2nc3nc(N)nc(N)c3nc2-c2ccc(N)cc2)cc1` the IC50 was 43 µM. In the case of `c1ccc(-c2ccc(C(c3ccccc3)n3ccnc3)cc2)cc1` (centres undefined), the IC50 is reported as 19.7 µM. Work on `FC(F)(Cl)c1nnc2ccc(Cl)nn12` yielded an IC50 of 0.26 µM. In the case of `Cc1cc(C)nc(-n2nc(C)cc2NC(=O)CN2CCC(C)CC2)n1`, the IC50 is reported as 6.86 µM. In the case of `Cc1cc(=O)n2[nH]c(Nc3cccc(Cl)c3)nc2n1`, the IC50 is reported as 20.4 µM. Work on `CCn1c(C)nc2cc(C(=O)OC(C(F)(F)C(F)F)C(F)(F)C(F)F)ccc21` yielded an IC50 of 17.8 µM. With `CCOC(=O)c1cc(-c2csc(Nc3c(C)cc(C)cc3C)n2)on1` the IC50 was 1.07 µM. With `CCOC(=O)[C@@H]1[C@H]2COc3cc(OC)ccc3[C@H]2N2C(=O)N(c3ccc(C(F)(F)F)cc3)C(=O)[C@]12C` the IC50 was 5.77 µM. `O=S(=O)(Nc1ccc2[nH]ncc2c1)c1ccccc1Cl` gave an IC50 of 11.6 µM. `Cc1cc(OC(=O)c2cccs2)c2c3c(c(=O)oc2c1)CCCC3` showed an IC50 of 3.04 µM. `COc1ccc(NC(=O)CSc2nnc(-c3ccccn3)n2N)cc1Cl` was tested, and the IC50 was 18.1 µM. Work on `COc1ccc(CN2CCCC(C(=O)c3ccc(SC)cc3)C2)cc1Cn1cccn1` (centres undefined) yielded an IC50 of 23.9 µM. For `O=C(CCC(=O)NC1CCCCCCC1)Nc1nnc(C(F)(F)F)s1`, the IC50 was 12 µM. With `CC1CC(C)CN(C(=O)C2CCC(CNc3c(N4CCCCC4)c(=O)c3=O)CC2)C1` (centres undefined) the IC50 was 19.3 µM. `Nc1ccc(Oc2ccc(F)cc2)nc1` was tested, and the IC50 was 60.6 µM. Work on `CCOC(=O)c1cc2cc3ccccc3cc2oc1=O` yielded an IC50 of 34 µM. With `Cc1cccc(/C=C2/S/C(=N/N=C3\CC4CCC3(C)C4(C)C)NC2=O)c1` (centres undefined) the IC50 was 7.92 µM. `COc1cccc(/C=N/Nc2ncnc3scc(-c4ccccc4)c23)c1O` gave an IC50 of 1.57 µM. With `COc1ccc(-c2csc3ncnc(N4CCN(c5ccccc5OC)CC4)c23)cc1` the IC50 was 23.1 µM. In the case of `Cc1ccc(CN2C3CCCC2CC(NC(=S)NCc2ccccc2)C3)cc1` (centres undefined), the IC50 is reported as 45.8 µM. With `Nc1nc2ccccc2n1/N=C/c1ccc(Br)cc1` the IC50 was 12.2 µM. `O=c1oc2ccccc2c(O)c1/C=C1\C=Nc2ccccc21` was tested, and the IC50 was 16.6 µM. `Fc1ccc2[nH]c3c(NCc4ccccc4)ncnc3c2c1` was tested, and the IC50 was 23.5 µM. `Cc1ccccc1C(=O)Nc1ccc(N(C)C)c2ccccc12` was tested, and the IC50 was 16.6 µM. For `Cc1ccc(C(C(=O)NCC2CCCO2)N(Cc2ccccc2)C(=O)c2ccc(-c3ccccc3)[nH]2)o1` (centres undefined), the IC50 was 23.3 µM. Work on `CN1CCN(C2=Cc3ccc(Cl)cc3Sc3ccc(F)cc32)CC1` yielded an IC50 of 22.7 µM. `CN1C(C(=O)NCc2ccc(OC(F)(F)F)cc2)CC2Cn3c(nc4cc(Cl)c(Cl)cc43)C21` (centres undefined) showed an IC50 of 39.8 µM. In the case of `Cc1ccn2c(-c3csc(NCc4ccccc4)n3)c(C)nc2c1`, the IC50 is reported as 46.8 µM. Work on `CCOc1cc2c3c(c1)C1(C(=O)N3C(C)(C)CC2C)C(C#N)=C(N)N2C(=C1C#N)Nc1ccccc12` (centres undefined) yielded an IC50 of 22.4 µM. In the case of `CCCCN1C(=N)N([C@@H](CCC)CN2CCC[C@H]2CN2C(N)=NC[C@@H]2Cc2ccccc2)C[C@H]1Cc1ccccc1`, the IC50 is reported as 12.8 µM. Work on `Cc1ccccc1CSc1nsc(N)n1` yielded an IC50 of 6.7 µM. `CCOC(=O)COn1c2c(c3c4no[n+]([O-])c4ccc31)CCCC2` was tested, and the IC50 was 3.16 µM. For `Cc1cc(C)c(C)c(N=Nc2nc3ccccc3n2C)c1C`, the IC50 was 6.16 µM. `CC1(C)CC(NC(=O)c2ccc(Cl)c(S(=O)(=O)N(Cc3ccccc3)c3ccccc3)c2)CC(C)(C)N1` gave an IC50 of 24.5 µM. In the case of `N#C/C(=C/c1ccc(Sc2nc3ccccc3[nH]2)o1)c1cccc(Br)c1`, the IC50 is reported as 77.6 µM. In the case of `C/C=C(\C)C(=O)Nc1cccc(C2=NOC3(C2)C[C@H](C(N)=O)N(C(=O)c2cc([N+](=O)[O-])cc([N+](=O)[O-])c2)C3)c1` (some centres undefined), the IC50 is reported as 1.34 µM. With `Cc1c2c(nc3ccccc13)CCC(C)C2` (centres undefined) the IC50 was 33.8 µM. In the case of `CCN1CSC(=S)N(Cc2ccccc2)C1`, the IC50 is reported as 10.5 µM. For `COc1ccc(-c2c[n+]3c4n2CCCCC4=C(c2ccccc2)C3)cc1`, the IC50 was 35.5 µM. `O=C1c2cccc3c([N+](=O)[O-])ccc(c23)C(=O)N1O` was tested, and the IC50 was 8.11 µM. In the case of `Cc1ccc(S(=O)(=O)NNC(=O)c2cc([N+](=O)[O-])c(C)c([N+](=O)[O-])c2)cc1`, the IC50 is reported as 7.57 µM. `Cc1nc([N+](=O)[O-])c(Br)n1CC(=O)c1ccc2ccccc2c1` gave an IC50 of 2.15 µM. `Cn1c(NCC(O)c2ccccc2)nc2c1c(=O)n(Cc1ccc(Cl)c(Cl)c1)c(=O)n2C` (centres undefined) gave an IC50 of 7.51 µM. `C(=N\NC1=Nc2cccc3cccc1c23)/c1cccnc1` was tested, and the IC50 was 13.4 µM. Work on `CC(C)(C)NC(=O)COC(=O)c1cc(Br)ccc1Cl` yielded an IC50 of 27.8 µM. In the case of `O=C(CSc1nc2ncc(Br)cc2[nH]1)Nc1ccc2c(c1)OCO2`, the IC50 is reported as 6.01 µM.

Same assay, conditions: measured here: IC90 growth inhibition
`Cc1cc2nc(C3CCN(CC4COc5ccccc5O4)CC3)[nH]c2cc1C` (centres undefined) showed an IC90 of 25.4 µM. For `O=C1C(c2ccccc2)=[N+]([O-])c2ccccc21`, the IC90 was greater than 100 µM. `COc1ccc(CCNc2cc(-c3ccccc3)nc3ncnn23)cc1` showed an IC90 greater than 100 µM.
